*1 amine or outer side, *2 acyl side, *3 side chain or, on linkers, in order; H or OH if unused. Where no end group is shown, it is not given here. [ ]: non-standard residue; d: D form. The star is where a group is joined. Pro(trans-4-NH2) = O=C([C@@H]1C[C@@H](N[*:3])CN1[*:1])[*:2]; Pro(4-methylene) = C=C1CN[C@H](C(=O)O)C1; Pro(cis-4-F) = O=C(O)[C@@H]1C[C@H](F)CN1; Pro(4,4-F2) = O=C(O)[C@@H]1CC(F)(F)CN1; Pro(4,4-Me2) = CC1(C)CN[C@H](C(=O)O)C1; Hyp = O=C(O)[C@@H]1C[C@@H](O)CN1; dHyp = O=C(O)[C@H]1C[C@H](O)CN1; Phg = N[C@H](C(=O)O)c1ccccc1; OiPr = CC(C)O*
What was measured:
[1] = tested on: choroidal neovascularization (CNV); experiment: Inhibition of choroidal neovascularization: fluorescence value (CTF) at the CNV site by FFA, laser-induced CNV model, intravitreal injection; assay type: in vivo, C57BL/6 mice; conditions: ten days after administration; for CTF (corrected total fluorescence) value: laser-induced CNV, 1 μL intravitreal, peptide 10 mg/mL or aflibercept 20 mg/mL, lower CTF = less CNV; for CNV inhibitory efficacy from fluorescence value of the CNV site (in words): intravitreal
From the text: (§1) The CNV animal model used in the present invention is a mouse model in which lesions are induced by irradiating a laser to the choroid of C57BL/6 mice using a laser slit system. The laser-induced CNV model, first described in 1979, uses photocoagulation to disturb Bruch's membrane to induce the growth of choroidal neovascularization into the retina area, and it is similar in development to neovascular disease in the human retina, that is, wet macular degeneration (wet AMD), in that neovascularity arises from the choroid. In addition, the laser-induced CNV model was successful in predicting the clinical efficacy of anti-vascular endothelial growth factor (VEGF) treatment for neovascular AMD, and is an animal model used in the development stage of existing therapeutic agents (Gong Y, Li J, Sun Y, Fu Z, Liu C H, Evans L, et al. (2015) Optimization of an Image-Guided Laser-Induced Choroidal Neovascularization Model in Mice. PLOS ONE 10 (7)).
(§2) In order to evaluate the efficacy of the peptide of the present invention to inhibit the choroidal neovascularization (CNV), an experiment was performed as follows.
(§3) The eyes of 7-8 week old C57BL/6 mice were instilled with a mydriatic agent to dilate the pupils, and the mice were anesthetized by intraperitoneal injection of ketamine (50 mg/kg) and rompun (23.32 mg/kg). A slit-lamp laser injection system was used to irradiate the laser to the choroid of each eye of the mouse four times in the 12 o'clock, 3 o'clock, 6 o'clock, and 9 o'clock directions. At this time, the laser irradiation conditions were 532 nm, 80 msec, and 240 mW. Immediately after laser irradiation, 1 μL of each peptide at a concentration of 10 mg/mL or aflibercept at a concentration of 20 mg/mL, which was dissolved in PBS, was injected into the vitreous body using a syringe. Ten days after drug administration, the mice were anesthetized, and 2% fluorescein was administered to the abdominal cavity to stain blood vessels. The retina was photographed 2 to 3 minutes after fluorescein administration. The size and fluorescence value of CNV lesions induced by laser were measured using the ImageJ program, and in order to reduce the differences between subjects, the CTF (corrected total fluorescence) was calculated by removing the background, and the values of each group were compared. The results of all tests are expressed as mean±standard deviation, and significance was verified using one-way ANOVA and Kruskal-wallis test.

[2] = tested on: choroidal neovascularization (CNV); experiment: Inhibition of choroidal neovascularization: optical coherence tomography, size of CNV lesion, intravitreal injection; assay type: in vivo, C57BL/6 mice; conditions: laser-induced CNV; 1 μL intravitreal, peptide 10 mg/mL or aflibercept 20 mg/mL; ten days after administration; OCT
From the text: as §1, §2
as §3, with “and” for “and 2% fluorescein was administered to”, “the” for “the abdominal cavity to stain blood vessels. The retina was photographed 2 to 3 minutes after fluorescein administration. The size and fluorescence value of”, “calculated and expressed as μm^2” for “measured”, “program” for “program, and in order to reduce the differences between subjects, the CTF (corrected total fluorescence) was calculated”, “transmitting an OCT beam for” for “removing the background, and the values of”, “burn.” for “group were compared.”

[3] = Stability of the peptide: content analysis by HPLC in aqueous solution under harsh conditions; assay type: physicochemical
Method: In order to evaluate the stability of the peptide of the present invention, an experiment was performed as follows.
The stability of the peptide was confirmed through content analysis in an aqueous solution at 40° C., 75% humidity, and harsh conditions, and was analyzed using HPLC under the following conditions. • Analysis column: C18 (4.6 Y 250 mm, 5 μm, YMC Hydrosphere) • Analysis wavelength: ultraviolet absorption spectrophotometer (210 nm) • Injection volume/Flow rate: 10 μL/0.8 mL/min • Column temperature: 45° C. • Mobile phase: 0.1 M phosphate buffer methanol mixture (83:17)

For “4,4-difluoro-Pro-Gly-Gln-Asp-Gly ([Pro(4,4-F2)]GQDG) [Example 24]”, the “CTF (corrected total fluorescence) value” [1] was “+ (+: 300,000 to 800,000)”.

For “4,4-difluoro-Pro-Gly-Gln-Asp-Gly-Leu ([Pro(4,4-F2)]GQDGL) [Example 29]”, the “CTF (corrected total fluorescence) value” [1] was “+ (+: 300,000 to 800,000)”.

In the case of “4,4-dimethyl Pro-Gly-Gln-Asp-Gly ([Pro(4,4-Me2)]GQDG) [Example 26]”, the “CTF (corrected total fluorescence) value” [1] is reported as “+ (+: 300,000 to 800,000)”.

With “4,4-dimethyl Pro-Gly-Gln-Asp-Gly-Leu ([Pro(4,4-Me2)]GQDGL) [Example 31]” the “CTF (corrected total fluorescence) value” [1] was “+ (+: 300,000 to 800,000)”.

With “4,4-dimethyl Pro-Gly-Gln-Asp-Gly-Leu-Ala ([Pro(4,4-Me2)]GQDGLA; also: X1: 4,4-dimethyl-Pro (name) or 4-methylene-L-proline) [Example 35]” the “CTF (corrected total fluorescence) value” [1] was “+ (+: 300,000 to 800,000)”.

For “4-methylene-Pro-Gly-Gln-Asp-Gly ([Pro(4-methylene)]GQDG) [Example 25]”, the “CTF (corrected total fluorescence) value” [1] was “+ (+: 300,000 to 800,000)”.

For “4-methylene-Pro-Gly-Gln-Asp-Gly-Leu ([Pro(4-methylene)]GQDGL) [Example 30]”, the “CTF (corrected total fluorescence) value” [1] was “+ (+: 300,000 to 800,000)”.

For “4-methylene-Pro-Gly-Gln-Asp-Gly-Leu-Ala ([Pro(4-methylene)]GQDGLA) [Example 34]”, the Size of lesion [2] was 8,603 μm^2 and the “CTF (corrected total fluorescence) value” [1] was “+ (+: 300,000 to 800,000)”.

For “D-Hyp-Gly-Gln-Asp-Gly-Leu ([dHyp]GQDGL) [Example 13]”, the Size of lesion [2] was 6,395 μm^2, the “CNV inhibitory efficacy from fluorescence value of the CNV site (in words)” value (shortened to “CNV inhibitory efficacy”) [1] was “very excellent inhibitory efficacy” and the “CTF (corrected total fluorescence) value” [1] was “++ (++: 200,000 to 300,000)”.

With “D-Hyp-Gly-Gln-Asp-Gly-Leu-Ala ([dHyp]GQDGLA) [Example 32]” the “CTF (corrected total fluorescence) value” [1] was “+ (+: 300,000 to 800,000)”.

In the case of “Hyp-Gly-Gln-Asp-Ala ([Hyp]GQDA) [Example 3]”, the Size of lesion [2] is reported as 6,491 μm^2 and the “CTF (corrected total fluorescence) value” [1] is reported as “+ (+: 300,000 to 800,000)”.

In the case of “Hyp-Gly-Gln-Asp-Ala-Leu ([Hyp]GQDAL) [Example 9]”, the “CNV inhibitory efficacy” value [1] is reported as “very excellent inhibitory efficacy” and the “CTF (corrected total fluorescence) value” [1] is reported as “++ (++: 200,000 to 300,000)”.

For “Hyp-Gly-Gln-Asp-Ala-Leu-Ala ([Hyp]GQDALA) [Example 16]”, the “CTF (corrected total fluorescence) value” [1] was “+ (+: 300,000 to 800,000)”.

With “Hyp-Gly-Gln-Asp-Gly-D-Leu ([Hyp]GQDG[dL]) [Example 12]” the “CTF (corrected total fluorescence) value” [1] was “+ (+: 300,000 to 800,000)”.

For “Hyp-Gly-Gln-Asp-Gly-D-Leu-Ala ([Hyp]GQDG[dL]A) [Example 20]”, the “CTF (corrected total fluorescence) value” [1] was “+ (+: 300,000 to 800,000)”.

For “Hyp-Gly-Gln-Asp-Gly-Leu-Ala-IPE ([Hyp]GQDGLA-OiPr) [Example 17]”, the Size of lesion [2] was 5,978 μm^2, the “CNV inhibitory efficacy” value [1] was “very excellent inhibitory efficacy” and the “CTF (corrected total fluorescence) value” [1] was “++ (++: 200,000 to 300,000)”.

With “Hyp-Gly-Gln-Asp-Gly-Leu-D-Ala ([Hyp]GQDGL[dA]) [Example 21]” the “CTF (corrected total fluorescence) value” [1] was “+ (+: 300,000 to 800,000)”.

For “Hyp-Gly-Gln-Asp-Leu ([Hyp]GQDL) [Example 2]”, the “CTF (corrected total fluorescence) value” [1] was “+ (+: 300,000 to 800,000)”.

With “Hyp-Gly-Gln-Asp-Leu-Leu ([Hyp]GQDLL) [Example 8]” the “CNV inhibitory efficacy” value [1] was “very excellent inhibitory efficacy” and the “CTF (corrected total fluorescence) value” [1] was “++ (++: 200,000 to 300,000)”.

With “Hyp-Gly-Gln-Asp-Leu-Leu-Ala ([Hyp]GQDLLA) [Example 15]” the Size of lesion [2] was 6,672 μm^2, the “CNV inhibitory efficacy” value [1] was “very excellent inhibitory efficacy” and the “CTF (corrected total fluorescence) value” [1] was “++ (++: 200,000 to 300,000)”.

With “Hyp-Gly-Gln-Asp-Val ([Hyp]GQDV) [Example 1]” the Size of lesion [2] was 5,636 μm^2, the “CNV inhibitory efficacy” value [1] was “very excellent inhibitory efficacy” and the “CTF (corrected total fluorescence) value” [1] was “+++ (+++: 100,000 to 200,000)”.

In the case of “Hyp-Gly-Gln-Asp-Val-Leu ([Hyp]GQDVL) [Example 7]”, the Size of lesion [2] is reported as 6,046 μm^2, the “CNV inhibitory efficacy” value [1] is reported as “very excellent inhibitory efficacy” and the “CTF (corrected total fluorescence) value” [1] is reported as “++ (++: 200,000 to 300,000)”.

For “Hyp-Gly-Gln-Asp-Val-Leu-Ala ([Hyp]GQDVLA) [Example 14]”, the Size of lesion [2] was 5,407 μm^2, the “CNV inhibitory efficacy” value [1] was “very excellent inhibitory efficacy” and the “CTF (corrected total fluorescence) value” [1] was “++ (++: 200,000 to 300,000)”.

For “Hyp-Gly-Gln-D-Asp-Gly-Leu ([Hyp]GQ[dD]GL) [Example 11]”, the “CTF (corrected total fluorescence) value” [1] was “+ (+: 300,000 to 800,000)”.

In the case of “Hyp-Gly-Gln-Glu-Gly ([Hyp]GQEG) [Example 36]”, the “CTF (corrected total fluorescence) value” [1] is reported as “+ (+: 300,000 to 800,000)”.

For “Hyp-Gly-Gln-Glu-Leu-Leu ([Hyp]GQELL) [Example 38]”, the “CTF (corrected total fluorescence) value” [1] was “+ (+: 300,000 to 800,000)”.

With “Hyp-Gly-Gln-Glu-Val-Leu ([Hyp]GQEVL) [Example 39]” the “CTF (corrected total fluorescence) value” [1] was “+ (+: 300,000 to 800,000)”.

For “Hyp-Gly-Gln-Glu-phenyl-Gly-Leu-Ala ([Hyp]GQE[Phg]LA) [Example 45]”, the “CTF (corrected total fluorescence) value” [1] was “+ (+: 300,000 to 800,000)”, the “Content after 7 days” value ([3]; 40° C., 75% humidity, 7 days) was 98.147% and the Decrease rate ([3]; 40° C., 75% humidity, after 7 days) was 0.439%. It also gave an Initial content ([3]; HPLC, initial) of 98.586%.

In the case of [Hyp]GQ[dD]G [Example 5], the “CTF (corrected total fluorescence) value” [1] is reported as “+ (+: 300,000 to 800,000)”.

In the case of [Hyp]GQ[dD]GLA [Example 19], the “CTF (corrected total fluorescence) value” [1] is reported as “+ (+: 300,000 to 800,000)”.

With [Hyp]G[dQ]DG [Example 4] the “CTF (corrected total fluorescence) value” [1] was “+ (+: 300,000 to 800,000)”.

In the case of [Hyp]G[dQ]DGL [Example 10], the “CTF (corrected total fluorescence) value” [1] is reported as “+ (+: 300,000 to 800,000)”.

For [Hyp]G[dQ]DGLA [Example 18], the “CTF (corrected total fluorescence) value” [1] was “+ (+: 300,000 to 800,000)”.

With [dHyp]GQDG [Example 6] the “CTF (corrected total fluorescence) value” [1] was “+ (+: 300,000 to 800,000)”.

In the case of “cis-4F-Pro-Gly-Gln-Asp-Gly ([Pro(cis-4-F)]GQDG) [Example 22]”, the “CTF (corrected total fluorescence) value” [1] is reported as “+ (+: 300,000 to 800,000)”.

With “cis-4F-Pro-Gly-Gln-Asp-Gly-Leu ([Pro(cis-4-F)]GQDGL) [Example 27]” the “CNV inhibitory efficacy” value [1] was “very excellent inhibitory efficacy” and the “CTF (corrected total fluorescence) value” [1] was “+++ (+++: 100,000 to 200,000)”.

With “cis-4F-Pro-Gly-Gln-Asp-Gly-Leu-Ala ([Pro(cis-4-F)]GQDGLA) [Example 33]” the “CTF (corrected total fluorescence) value” [1] was “+ (+: 300,000 to 800,000)”.

With “trans-4NH2-Pro-Gly-Gln-Asp-Gly ([Pro(trans-4-NH2)]GQDG) [Example 23]” the “CNV inhibitory efficacy” value [1] was “very excellent inhibitory efficacy” and the “CTF (corrected total fluorescence) value” [1] was “++ (++: 200,000 to 300,000)”.

With “trans-4NH2-Pro-Gly-Gln-Asp-Gly-Leu ([Pro(trans-4-NH2)]GQDGL) [Example 28]” the “CTF (corrected total fluorescence) value” [1] was “+ (+: 300,000 to 800,000)”.
